Read-outs that look alike come from different tables or passages of the source.
Biological target: T1, recombinant human Syk (GST-hSyk fusion protein) (Homo sapiens, UniProt P43405)
T1 construct: purchased Carna Biosciences 08-176
Assay: Homogeneous Time-Resolved Fluorescence (HTRF) assay for the recombinant human Syk enzyme
Format: biochemical
Conditions: 10-dose titration, 25 μM ATP
Method in brief: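 GST-hSyk (5 pM) preincubated 10 min with compound (0.1% DMSO) in 15 mM Tris-HCl pH 7.5, 2 mM DTT; reaction started with 250 nM biotinylated peptide, 5 mM Mg, 25 μM ATP, 45 min, room temperature. EDTA quench, Eu-anti-phosphotyrosine/SA-APC HTRF read after 30 min; IC50 from 10-dose titration (10 μM–0.508 nM), four-parameter fit.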

[1] = IC50 class, read-out: rhSYK Activity

Compound | IC50 [1] [µM] | IC50 (read-out: rhSYK IC50) [µM]
COc1ccnc(Nc2cc(C)cc(-c3cnn(CCC(N)=O)c3)c2)n1 [Example 3.40, 3-(4-{3-[(4-methoxypyrimidin-2-yl)amino]-5-methylphenyl}-1H-pyrazol-1-yl)propanamide] | ≤ 0.1 | –
COc1ccnc(Nc2cc(C)cc(-c3cnn(C[C@@H](O)C(=O)O)c3)c2)n1 [Example 11.8, (2R)-2-hydroxy-3-(4-{3-[(4-methoxy-pyrimidin-2-yl)-amino]-5-methyl-phenyl}-1H-pyrazol-1-yl)propanoic acid] | ≤ 0.1 | –
Cc1cc(Nc2nccc(C(F)F)n2)cc(-c2cnn(CC(C)(O)CC#N)c2)c1 (stereo not drawn) [Example 20.8, 4-[4-(3-{[4-(difluoromethyl)pyrimidin-2-yl]amino}-5-methylphenyl)-1H-pyrazol-1-yl]-3-hydroxy-3-methylbutanenitrile] | ≤ 0.1 | –
Cc1cc(Nc2nccc(C(F)F)n2)cc(-c2cnn(CC(O)COCC(F)(F)F)c2)c1 (stereo not drawn) [Example 5.31, 1-[4-(3-{[4-(difluoromethyl)pyrimidin-2-yl]amino}-5-methylphenyl)-1H-pyrazol-1-yl]-3-(2,2,2-trifluoroethoxy)propan-2-ol] | ≤ 0.1 | –
Cc1cc(Nc2nccc(OCCO)n2)cc(-c2cnn(CCC(N)=O)c2)c1 [Example 3.38, 3-[4-(3-{[4-(2-hydroxyethoxy)pyrimidin-2-yl]amino}-5-methylphenyl)-1H-pyrazol-1-yl]propanamide] | ≤ 0.1 | –
Cc1cc(Nc2nccc(C3CC3)n2)cc(-c2cnn(C[C@H](O)C(=O)O)c2)c1 [Example 11.5, (2S)-3-(4-{3-[(4-cyclopropylpyrimidin-2-yl)amino]-5-methyl-phenyl}-1H-pyrazol-1-yl)-2-hydroxy-propanoic acid] | ≤ 0.1 | –
COc1ccnc(Nc2cccc(-c3cnn(C[C@@H](O)C(=O)O)c3)c2)n1 [Example 11.11, (2R)-2-hydroxy-3-(4-{3-[(4-methoxy-pyrimidin-2-yl)amino]phenyl}-1H-pyrazol-1-yl)propanoic acid] | ≤ 0.1 | –
Cc1cc(Nc2nccc(C)n2)cc(-c2cnn(C3CCCC(O)C3O)c2)c1 (stereo not drawn) [Example 10.10, 3-(4-{3-methyl-5-[(4-methylpyrimidin-2-yl)amino]phenyl}-1H-pyrazol-1-yl)cyclohexane-1,2-diol] | ≤ 0.1 | 0.0294
Cc1cc(Nc2ncc(F)c(C(F)F)n2)cc(-c2cnn([C@H]3CCC[C@H](O)[C@@H]3O)c2)c1 (relative stereo) [Example 10.12, 3-[4-(3-{[4-(difluoromethyl)-5-fluoro-pyrimidin-2-yl]amino}-5-methylphenyl)-1H-pyrazol-1-yl]cyclohexane-1,2-diol] | ≤ 0.1 | 0.0047
O=C(O)C1CCC(n2cc(-c3cc(Cl)cc(Nc4cc(C(F)(F)F)ccn4)n3)cn2)CC1 (stereo not drawn) [Example 1.54, 4-[4-(4-chloro-6-{[4-(trifluoromethyl)pyridin-2-yl]amino}pyridin-2-yl)-1H-pyrazol-1-yl]cyclohexanecarboxylic acid] | ≤ 0.1 | –
COCCNC(=O)[C@@H](O)Cn1cc(-c2cc(C)cc(Nc3nccc(C(F)(F)F)n3)c2)cn1 [Example 6.13, (2S)-2-hydroxy-N-(2-methoxyethyl)-3-[4-(3-methyl-5-{[4-(trifluorometh-yl)pyrimidin-2-yl]amino}phenyl)-1H-pyrazol-1-yl]propanamide] | ≤ 0.1 | –
Cc1cc(Nc2nccc(C)n2)cc(-c2cnn(CC3(O)CCC3)c2)c1 [Example 29.5, 1-[(4-{3-methyl-5-[(4-methylpyrimidin-2-yl)amino]phenyl}-1H-pyrazol-1-yl)methyl}cyclobutanol] | ≤ 0.1 | –
Cc1cc(Nc2nccc(C(F)F)n2)cc(-c2cnn(CC(C)(C)NS(C)(=O)=O)c2)c1 [Example 27.4, N-{2-[4-(3-{[4-(difluoromethyl)pyrimidin-2-yl]amino}-5-methylphenyl)-1H-pyrazol-1-yl]-1,1-dimethylethyl}methanesulfonamide] | ≤ 0.1 | –
Cc1cc(Nc2nccc(C(F)F)n2)cc(-c2cnn(C3CCCCC(O)C3O)c2)c1 (stereo not drawn) [Example 22.15, 3-[4-(3-{[4-(difluoromethyl)pyrimidin-2-yl]amino}-5-methylphenyl)-1H-pyrazol-1-yl]cycloheptane-1,2-diol] | ≤ 0.1 | 0.0026
4-{[4-(6-{[4-(difluoromethyl)pyridin-2-yl]amino}-4-methylpyridin-2-yl)-1H-pyrazol-1-yl)methyl}pyrrolidin-2-one [Example 1.37] | ≤ 0.1 | –
Cc1cc(Nc2nccc(C(F)(F)F)n2)cc(-c2cnn(CC3NC(=O)OC3C)c2)c1 (stereo not drawn) [Example 3.128, 5-methyl-4-{[4-(3-methyl-5-{[4-(trifluoromethyl)pyrimidin-2-yl]amino}phenyl)-1H-pyrazol-1-yl]methyl}-1,3-oxazolidin-2-one] | ≤ 0.1 | –

Compound | IC50 [1] [µM] | IC50 (read-out: rhSYK IC50) [µM]
O=C(O)CCc1cnn(-c2cccc(Nc3cc(C(F)(F)F)ccn3)n2)c1 [Example 18.1, 3-(1-(6-((4-(trifluoromethyl)pyridin-2-yl)amino)pyridin-2-yl)-1H-pyrazol-4-yl)propanoic acid] | ≤ 0.1 | –
Cc1cc(Nc2cc(C(F)(F)F)ccn2)nc(-c2cnn(C3CCC(C(N)=O)c4ccccc43)c2)c1 (stereo not drawn) [Example 6.14, 4-[4-(4-methyl-6-{[4-(trifluoro-methyl)-pyridin-2-yl]amino}-pyridin-2-yl)-1H-pyrazol-1-yl]-1,2,3,4-tetrahydro-naphthalene-1-carboxamide] | ≤ 0.1 | –
Cc1cc(Nc2nccc(C(F)(F)F)n2)cc(-c2cnn(Cc3noc(C)n3)c2)c1 [Example 3.10, N-(3-methyl-5-{1-[(5-methyl-1,2,4-oxadiazol-3-yl)methyl]-1H-pyrazol-4-yl}phenyl)-4-(trifluoromethyl)-pyrimidin-2-amine] | ≤ 0.1 | –
Cc1cc(Nc2nccc(C(F)(F)F)n2)cc(-n2cc(C(C)(O)[C@H]3CC[C@H](C(=O)O)CC3)cn2)c1 (stereo partly drawn) [Example 19.12, trans-4-{1-hydroxy-1-[1-(3 methyl-5-{[4-(trifluoromethyl)pyrimidin-2-yl]amino}phenyl)-1H-pyrazol-4-yl]ethyl}cyclohexanecarboxylic acid] | ≤ 0.1 | –
Cc1cc(Nc2nccc(C(F)F)n2)cc(-c2cnn(CC(C)(C)NC(=O)C3CC3)c2)c1 [Example 26.2, N-{2-[4-(3-{[4-(difluoromethyl)pyrimidin-2-yl]amino}-5-methylphenyl)-1H-pyrazol-1-yl]-1,1-dimethylethyl}cyclopropanecarboxamide] | ≤ 0.1 | –
Cc1cc(Nc2nccc(C(F)F)n2)cc(-c2cnn(CC(O)CC3COC(=O)C3)c2)c1 (stereo not drawn) [Example 5.28, 4-{3-[4-(3-{[4-(difluoromethyl)pyrimidin-2-yl]amino}-5-methylphenyl)-1H-pyrazol-1-yl]-2-hydroxypropyl}dihydrofuran-2(3H)-one] | ≤ 0.1 | –
Cc1cc(Nc2nccc(C(F)(F)F)n2)cc(-c2cnn(CC3CNC(=O)O3)c2)c1 (single isomer, unassigned) [Example 2.4, 5-{[4-(3-methyl-5-{[4-(trifluoromethyl)-pyrimidin-2-yl]-amino}phenyl)-1H-pyrazol-1-yl]methyl}-1,3-oxazolidin-2-one] | ≤ 0.1 | –
Cc1cc(Nc2cc(C(F)(F)F)ccn2)nc(-c2cnn(CC3CNC(=O)O3)c2)c1 (stereo not drawn) [Example 1.28, 5-{[4-(4-methyl-6-{[4-(trifluoromethyl)pyridin-2-yl]amino}pyridin-2-yl)-1H-pyrazol-1-yl]methyl}-1,3-oxazolidin-2-one] | ≤ 0.1 | –
Cc1cc(Nc2nccc(C(F)(F)F)n2)cc(-c2cnn(C[C@H]3COC(=O)N3)c2)c1 [Example 3.96, (4S)-4-{[4-(3-methyl-5-{[4-(trifluoromethyl)pyrimidin-2-yl]amino}phenyl)-1H-pyrazol-1-yl]methyl}-1,3-oxazolidin-2-one] | ≤ 0.1 | –
Cc1cc(Nc2nccc(C(F)(F)F)n2)cc(-c2cnn(CC3OC(=O)NC3(C)C)c2)c1 (stereo not drawn) [Example 3.100, 4,4-dimethyl-5-{[4-(3-methyl-5-{[4-(trifluoromethyl)pyrimidin-2-yl]amino}phenyl)-1H-pyrazol-1-yl]methyl}-1,3-oxazolidin-2-one] | ≤ 0.1 | –
Cc1cc(Nc2nccc(C(F)(F)F)n2)cc(-c2cnn(C3CCC(C(N)=O)CC3)c2)c1 (stereo not drawn) [Example 8.6, 4-[4-(3-methyl-5-{[4-(trifluorometh-yl)pyrimidin-2-yl]amino}-phenyl)-1H-pyrazol-1-yl]cyclohexane-carboxamide] | ≤ 0.1 | –
Cc1cc(Nc2nccc(C(F)(F)F)n2)cc(-c2cnn(CC(C)(O)C(N)=O)c2)c1 (single isomer, unassigned) [Example 8.1, (R or S) 2-hydroxy-2-methyl-3-[4-(3-methyl-5-{[4-(trifluoromethyl)pyrimidin-2-yl]amino}phenyl)-1H-pyrazol-1-yl]propanamide] | ≤ 0.1 | 0.001
Cc1cc(Nc2nccc(C(F)F)n2)cc(-c2cnn(CC3CC(=O)NC3C)c2)c1 (stereo not drawn) [Example 2.76, 4-{[4-(3-{[4-(difluoromethyl)pyrimidin-2-yl]amino}-5-methylphenyl)-1H-pyrazol-1-yl]methyl}-5-methylpyrrolidin-2-one] | ≤ 0.1 | –
Cc1cc(Nc2nccc(C(F)F)n2)cc(-c2cnn(CC(O)CN)c2)c1 (stereo not drawn) [Example 5.37, 1-amino-3-[4-(3-{[4-(difluoromethyl)pyrimidin-2-yl]amino}-5-methylphenyl)-1H-pyrazol-1-yl]propan-2-ol] | ≤ 0.1 | –
Cc1cc(Nc2nccc(C(F)(F)F)n2)cc(-c2cnn(C3CCC(C(=O)O)CC3)c2)c1 (stereo not drawn) [Example 1.57, 4-[4-(3-methyl-5-{[4-(trifluoromethyl)pyrimidin-2-yl]amino}phenyl)-1H-pyrazol-1-yl]cyclohexanecarboxylic acid] | ≤ 0.1 | –
Cc1cc(Nc2nccc(C(C)C)n2)cc(-c2cnn(CC3CNC(=O)O3)c2)c1 (stereo not drawn) [Example 2.29, 5-{[4-(3-methyl-5-{[4-(1-methylethyl)pyrimidin-2-yl]amino}phenyl)-1H-pyrazol-1-yl]methyl}-1,3-oxazolidin-2-one] | ≤ 0.1 | –

Reference: patent publication US9242984B2, “Pyrazolyl derivatives as Syk inhibitors” (Merck Sharp & Dohme Corp., priority 2012, dated 2016)
